Publication PMC10765375, “Crystal structure and enzymology of Solanum tuberosum inositol tris/tetrakisphosphate kinase 1 (StITPK1)” (Biochemistry, 2023)
“Also recorded” adds a separate entry of the source. Structures can show the parent of a compound that is named as a salt. Where two headings read alike, the source gives them in different places.

Columns and labels:
[1] = target: T1, StITPK1 (Solanum tuberosum, UniProt A4H2J0); test: Fluorescence polarization saturation binding of 2-FAM-InsP5; conditions: 2 nM probe, 1-500 nM StITPK1, one-site binding model
T1 sequence (A4H2J0 entry or part of it): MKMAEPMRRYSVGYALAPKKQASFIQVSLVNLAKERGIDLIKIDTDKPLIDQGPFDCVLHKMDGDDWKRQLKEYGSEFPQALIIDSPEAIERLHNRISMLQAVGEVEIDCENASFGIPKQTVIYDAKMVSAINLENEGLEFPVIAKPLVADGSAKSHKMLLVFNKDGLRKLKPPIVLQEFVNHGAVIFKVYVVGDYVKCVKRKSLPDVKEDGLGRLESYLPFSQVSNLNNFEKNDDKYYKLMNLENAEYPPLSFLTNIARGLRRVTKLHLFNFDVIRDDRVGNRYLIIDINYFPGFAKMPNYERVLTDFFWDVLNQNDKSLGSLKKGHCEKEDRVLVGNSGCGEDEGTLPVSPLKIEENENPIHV
Procedure: (§1) Schrödinger, LLC, New York, NY, 2021). All models of the complexes were subsequently energy minimized to convergence using the Prime module of Schrodinger (Schrödinger Release 2022-2: Prime) employing the all atom OPLS force field and the VSGB 2.1 implicit solvent model. Illustrations were generated using the PyMOL Molecular Graphics System, Version 2.5 (Schrödinger, LLC).
(§2) Kinase assays were performed with ATP-regeneration as described for ATP-grasp kinases ITPK1/2 and VIH1/2 [2-3, 27-29], here in 20 mM HEPES pH 6.5, 1 mM MgCl2, 0.5 mM ATP and 1 mM inositol phosphate substrate. The low rate constants for phospho-kinase activity and the low sensitivity of NMR, PAGE and HPLC […]
(§3) [2-3, 27-29], here with or without 4 µM protein for 3h or 12h at 25 °C. Competition/inhibition assays were […]
(§4) InsP6, and competitor, typically 0.5 mM, incubated with or without 3 µM protein for 2 h at 25 °C . […] Peak area data were analysed with the chromatography Jasco ChromNav v.2 software and x,y data were imported into GraphPad Prism v.6 software (GraphPad Software Inc., San Diego, USA) for plotting of chromatograms without additional processing of the data.
(§5) Fluorescence polarization (anisotropy) […]
or analog thereof with 2 nM 2-FAM-InsP5 and 50 nM StITPK1. […] Fluorescence polarization was measured in 384-well, black, low-binding plates, Corning product 3573. […]

[2] = target: T1, StITPK1; test: Fluorescence polarization displacement of 2-FAM-InsP5; assay type: binding; conditions: Cheng-Prusoff with Kd 48 nM
Text: To determine the relative strengths of binding of different inositol phosphate and inositol pyrophosphate substrates of StITPK1 we undertook fluorescence polarization experiments with 2-FAM-InsP5 [35]. […] A saturation curve for binding of 2-FAM-InsP5 to StITPK1 is shown (Figure S5) and displacement curves are shown for diverse inositol phosphates (Figure 2). The structures of these compounds are shown (Figure S1). […]
Fluorescence polarization (anisotropy)
A curve for binding of 2-FAM-InsP5 to StITPK1 was obtained by incubation of 2 nM 2-FAM-InsP5 [1] with increasing concentration (1-500 nM) of StITPK1 in 20 mM HEPES pH 6.5, 1 mM EDTA, 100 mM NaCl, after. Thereafter, displacement assays were performed by titration of inositol phosphate, inositol pyrophosphate […]
or analog thereof with 2 nM 2-FAM-InsP5 and 50 nM StITPK1. Compounds were tested for displacement in a range of 1 nM - 50 µM. Fluorescence polarization was measured in 384-well, black, low-binding plates, Corning product 3573. Binding and displacement curves (anisotropy) were log transformed and fitted to a 4-parameter logistic (in GraphPad Prism v.6 software (GraphPad Software Inc., San Diego, USA). Fitting of the […]
Substituting the value of Kd for KM in the Cheng-Prusoff equation for competitive inhibition: […]
with concentration of 2-FAM-InsP5 [S], yielded Ki with confidence intervals adjusted by linear approximation.
M.; Jamieson, A. G.; Potter, B. V.; Schwabe, J. W., Insights into the activation mechanism of class I HDAC complexes by inositol phosphates. Nat Commun 2016, 7, 11262. […]

[3] = target: T1, StITPK1; test: Kinase assay with ATP, HPLC of products; assay type: biochemical; conditions: for Product formation (3h) / Product formation (12h): 25°C; for kinase substrate status: with ATP, HPLC
Procedure: as §2, §3
InsP6, and competitor, typically 0.5 mM, incubated with or without 3 µM protein for 2 h at 25 °C . […]
(§6) 0.5 mM inositol pyrophosphate substrate incubated with 4 µM protein at 25 °C . HPLC analysis and detection of inositol phosphates by complexation with ferric ion was performed as described. Peak area data were analysed with the chromatography Jasco ChromNav v.2 software and x,y data were imported into GraphPad Prism v.6 software (GraphPad Software Inc., San Diego, USA) for plotting of chromatograms without additional processing of the data. […]

[4] = target: T1, StITPK1; test: Competition/inhibition of Ins(1,2,3,4,5)P5 5-phospho-kinase activity, HPLC; assay type: biochemical; conditions: 0.5 mM competing substrate/inhibitor, 1 mM Ins(1,2,3,4,5)P5, 3h experiment
[5] = target: T2, AtITPK1; test: Kinase assay with ATP, HPLC of products; assay type: biochemical, Arabidopsis thaliana; conditions: for kinase substrate status: with ATP, HPLC
T2 construct: made in house
Procedure: as §2
[2-3, 27-29], here with or without 4 µM protein for 3h or 12h at 25 °C. […]
as §6

[6] = system: AtVIH2; parameters: method as in PMID 31436531; conditions: isolated kinase domain ref 24; cited from earlier work
[7] = target: T1, StITPK1; test: Competition/inhibition of InsP6 5-phospho-kinase activity, HPLC; assay type: biochemical; conditions: 5 μM inhibitor, 1 mM InsP6
Procedure: Figure 6 Inhibition of StITPK1 phospho-kinase activity by inositol pyrophosphate analogs. […] Reactions were performed for 2h at 30 °C with 3 μM StITPK1, 0.5 mM ATP, 1mM inositol phosphate in the absence or presence of competitor. The extent of inhibition at inhibitor concentration (mM) indicated by number in each column was estimated from the integrated peak areas of substrate and product peaks resolved by HPLC (example HPLC traces are shown in Figure S10). Significant difference at p=0.05 between inhibitor treatments (by One-way ANOVA and Tukey’s multiple comparisons test) is indicated by the absence of a common letter.
as §1, with “LLC). […]” for “LLC).”
as §4, §5

[8] = system: T2, AtITPK1; conditions: cited from earlier work
[9] = 2 nM 2-FAM-InsP5, 50 nM StITPK1, pH 6.5, read-out: Ki for displacement of 2-FAM-InsP5

O=C(NCCO[C@H]1[C@@H](OP(=O)(O)O)[C@H](OP(=O)(O)O)[C@@H](OP(=O)(O)O)[C@H](OP(=O)(O)O)[C@H]1OP(=O)(O)O)c1ccc2c(c1)C(=O)OC21c2ccc(O)cc2Oc2cc(O)ccc21 [2-FAM-InsP5, 2-O-(2-(5-fluoresceinylcarboxy)-aminoethyl)-myo-inositol 1,3,4,5,6-pentakisphosphate (triethylammonium salt)]
Kd [1]: 48 nM

O=P(O)(O)O[C@H]1[C@@H](OP(=O)(O)O)[C@H](OP(=O)(O)O)[C@@H](OP(=O)(O)OP(=O)(O)O)[C@H](OP(=O)(O)O)[C@H]1OP(=O)(O)O [5-PP-InsP5, 5-diphospho-myo-inositol 1,2,3,4,6-pentakisphosphate]
Ki [2, 9]: 162 nM
Product formation (3h) ([3]; 1 mM substrate): 0 μM/μM protein
Product formation (12h) ([3]; 1 mM substrate): 0 μM/μM protein
kinase substrate status [3]: not a substrate
% inhibition at 3h, Ins(1,2,3,4,5)P5 substrate [4]: 82%
kinase substrate status [5]: not a substrate
turnover number, 1-phospho-kinase activity [6]: ~ 1 min^-1

O=P(O)(O)O[C@H]1[C@H](OP(=O)(O)O)[C@@H](OP(=O)(O)O)[C@@H](O)[C@@H](O)[C@@H]1OP(=O)(O)O [Ins(3,4,5,6)P4, 1D-myo-inositol 3,4,5,6-tetrakisphosphate]
Ki [2, 9]: 716 nM
Discrimination between InsP4 enantiomers in favour of Ins(3,4,5,6)P4 ([3]; vs Ins(1,4,5,6)P4): ~ 200 fold
kinase substrate status [3]: better substrate than both its enantiomer Ins(1,4,5,6)P4 and InsP6
inhibition of 5-PP-InsP5-synthesizing (InsP6 phospho-kinase) activity [7]: particularly powerful inhibitor
Discrimination between InsP4 enantiomers in favour of Ins(3,4,5,6)P4 ([5]; vs Ins(1,4,5,6)P4): ~ 200 fold
Vmax relative to InsP6 [8]: 3 orders of magnitude greater

O=P(O)(O)O[C@H]1[C@H](OP(=O)(O)O)[C@@H](OP(=O)(O)O)[C@H](OP(=O)(O)O)[C@@H](OP(=O)(O)O)[C@H]1OP(=O)(O)O [myo-InsP6, myo-inositol 1,2,3,4,5,6-hexakisphosphate]
Ki ([2]; Ki for displacement of 2-FAM-InsP5, 2 nM 2-FAM-InsP5, 50 nM StITPK1, pH 6.5): 126 nM
Product formation (3h) ([3]; 1 mM substrate): 241 μM/μM protein
Product formation (12h) ([3]; 1 mM substrate): 289 μM/μM protein
Product formation (separate 12h experiment) ([3]; 1 mM substrate, separate 12h experiment): 220 μM/μM protein
Kcat (turnover of substrate) ([3]; in the absence of inhibitor, 1 mM substrate, 0.5 mM ATP, pH 6.5): ~ 1.14 min^-1
kinase substrate status [3]: generating 5-PP-InsP5; also recorded: strongest phospho-kinase substrate
% inhibition at 3h, Ins(1,2,3,4,5)P5 substrate [4]: 89%
kinase substrate status [5]: strongest phospho-kinase substrate
Kcat for phospho-kinase activity ([8]; calculated from data ref 20-21, 27): ~ 1.5 min^-1
turnover number, 1-phospho-kinase activity [6]: ~ 0.4 min^-1
